Data reported in patent publication US7893043B2, “2-methylene-(17Z)-17(20)-dehydro-19,21-dinor-vitamin D analogs” (Wisconsin Alumni Research Foundation, priority 2008, dated 2011).
“Also recorded” adds a separate entry of the source. Read-outs that look alike come from different tables or passages of the source.

How the values were obtained:
[1] = test system: intestinal calcium transport; test: Intestinal calcium transport, everted gut sac method; type: in vivo, rat; conditions: for intestinal calcium transport: everted gut sac
Experimental: (§1) Male, weanling Sprague-Dawley rats were placed on Diet 11 (0.47% Ca) diet +AEK oil for one week followed by Diet 11 (0.02% Ca) +AEK oil for 3 weeks. The rats were then switched to a diet containing 0.47% Ca for one week followed by two weeks on a diet containing 0.02% Ca. Dose administration began during the last week on 0.02% calcium diet. Four consecutive ip doses were given approximately 24 hours apart. Twenty-four hours after the last dose, blood was collected from the severed neck and the concentration of serum calcium determined as a measure of bone calcium mobilization. The first 10 cm of the intestine was also collected for intestinal calcium transport analysis using the everted gut sac method.
Intestinal calcium transport was evaluated in the same groups of animals using the everted gut sac method (FIG. 5). […] Thus, it may be concluded that Vit II Z has essentially similar intestinal calcium transport activity at the recommended lower doses to that of 1,25(OH)2D3.

HL-60 cells = test: HL-60 differentiation (nitro blue tetrazolium reduction); type: cell-based, human; conditions: differentiation of HL-60 cells into monocytes, FIG. 2, read-out: EC50, HL-60 cell differentiation
Experimental: The study drugs were dissolved in ethanol and the concentrations determined using UV spectrophotometry. Serial dilutions were prepared so that a range of drug concentrations could be tested without changing the final concentration of ethanol (≦0.2%) present in the cell cultures.
Human promyelocytic leukemia (HL60) cells were grown in RPMI-1640 medium containing 10% fetal bovine serum. The cells were incubated at 37° C. in the presence of 5% CO2.
HL60 cells were plated at 1.2×10^5 cells/ml. Eighteen hours after plating, cells in duplicate were treated with drug. Four days later, the cells were harvested and a nitro blue tetrazolium reduction assay was performed (Collins et al., 1979; J. Exp. Med. 149:969-974). The percentage of differentiated cells was determined by counting a total of 200 cells and recording the number that contained intracellular black-blue formazan deposits. Verification of differentiation to monocytic cells was determined by measuring phagocytic activity (data not shown).

[2] = test system: bone calcium mobilization; test: Bone calcium mobilization (serum calcium) in vitamin D-deficient rats; type: in vivo, rat
Experimental: as §1
Calcium mobilization from bone and intestinal calcium absorption in vitamin D-deficient animals. Using vitamin D-deficient rats on a low calcium diet (0.02%), the activities of Vit II Z and 1,25(OH)2D3 in intestine and bone were tested. As expected, the native hormone (1,25(OH)2D3) increased serum calcium levels at all dosages (FIG. 4).

[3] = test system: 24-hydroxylase (24Ohase) gene promoter; test: In vitro transcription assay (24-hydroxylase promoter luciferase reporter in ROS 17/2.8 bone cells); type: cell-based; conditions: ROS 17/2.8 cells, FIG. 3, read-out: EC50, transcriptional activity in bone cells
Experimental: Transcription activity was measured in ROS 17/2.8 (bone) cells that were stably transfected with a 24-hydroxylase (24Ohase) gene promoter upstream of a luciferase reporter gene (Arbour et al., 1998). Cells were given a range of doses. Sixteen hours after dosing the cells were harvested and luciferase activities were measured using a luminometer.
RLU=relative luciferase units.

[4] = target: T1, full-length recombinant rat vitamin D receptor (Rattus norvegicus, UniProt P13053); test: Vitamin D receptor binding, competition with [3H]-1,25(OH)2D3; conditions: FIG. 1
T1 construct: Full-length recombinant rat receptor was expressed in E. coli BL21 (DE3) Codon Plus RIL cells; histidine tag (C); made in house; host or cells: E. coli BL21 (DE3) Codon Plus RIL
T1 sequence (P13053 1-423): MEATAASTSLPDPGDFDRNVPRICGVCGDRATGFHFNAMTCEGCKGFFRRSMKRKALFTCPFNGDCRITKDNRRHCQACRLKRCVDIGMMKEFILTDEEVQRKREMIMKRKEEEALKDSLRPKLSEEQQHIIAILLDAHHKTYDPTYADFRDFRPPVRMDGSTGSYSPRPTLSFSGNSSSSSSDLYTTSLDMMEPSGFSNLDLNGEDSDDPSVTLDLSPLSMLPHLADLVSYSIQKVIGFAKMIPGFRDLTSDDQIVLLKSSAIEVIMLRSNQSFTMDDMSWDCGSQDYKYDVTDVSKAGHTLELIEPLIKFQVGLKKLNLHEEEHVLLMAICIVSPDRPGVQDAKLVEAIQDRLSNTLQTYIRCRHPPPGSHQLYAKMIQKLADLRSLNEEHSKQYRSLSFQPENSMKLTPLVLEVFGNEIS
Experimental: Full-length recombinant rat receptor was expressed in E. coli BL21 (DE3) Codon Plus RIL cells and purified to homogeneity using two different column chromatography systems. The first system was a nickel affinity resin that utilizes the C-terminal histidine tag on this protein. The protein that was eluted from this resin was further purified using ion exchange chromatography (S-Sepharose Fast Flow). Aliquots of the purified protein were quick frozen in liquid nitrogen and stored at −80° C. until use. For use in binding assays, the protein was diluted in TEDK50 (50 mM Tris, 1.5 mM EDTA, pH7.4, 5 mM DTT, 150 mM KCl) with 0.1% Chaps detergent. The receptor protein and ligand concentration were optimized such that no more than 20% of the added radiolabeled ligand was bound to the receptor.
Radiolabeled and unlabeled ligands were added to 100 mcl of the diluted protein at a final ethanol concentration of ≦10%, mixed and incubated overnight on ice to reach binding equilibrium. The following day, 100 mcl of hydroxylapatite slurry (50%) was added to each tube and mixed at 10-minute intervals for 30 minutes. […] After the final wash, the pellets were transferred to scintillation vials containing 4 ml of Biosafe II scintillation cocktail, mixed and placed in a scintillation counter. Total binding was determined from the tubes containing only radiolabeled ligand.

Row | Compound | intestinal calcium transport ([1]; at the tested doses) | EC50 (HL-60 cells) [nM] | serum calcium levels ([2]; all dosages, rats on 0.02% Ca diet, FIG. 4) | EC50 [3] [nM] | intestinal calcium transport ([1]; 29 pmol/day) | intestinal calcium transport ([1]; 2340 pmol/day) | intestinal calcium transport activity compared to 1,25(OH)2D3 ([1]; vitamin D-deficient rats, ip, FIG. 5) | EC50 (HL-60 cells; Homo sapiens) [nM] | bone calcium mobilization activity compared to 1,25(OH)2D3 ([2]; 87 pmol/day and 780 pmol/day for 4 consecutive days, rats on 0.02% Ca diet) | bone calcium mobilization, effect of increasing the dose ([2]; 2340 pmol/day, rats on 0.02% Ca diet) | bone calcium mobilization activity compared to 1,25(OH)2D3 ([2]; vitamin D-deficient rats, ip, FIG. 4) | VDR binding affinity compared to 1,25-(OH)2D3 [4] | Ki ([4]; full-length recombinant rat VDR) [nM]
1 | C=C1/C(=C\C=C2/CCC[C@]3(C)[C@@H]([C@H](C)CCCC(C)(C)O)CC[C@@H]23)C[C@@H](O)C[C@@H]1O [1α,25-dihydroxyvitamin D3, reference compound] | significant increase | 2 | increased | 0.2 | – | – | – | – | – | – | – | – | –
2 | C=C1[C@H](O)CC(=C/C=C2\CCC[C@]3(C)/C(=C\CCCC(C)(C)O)CC[C@@H]23)C[C@H]1O [Vit II Z, 2-methylene-(17Z)-17(20)-dehydro-19,21-dinor-1α,25-dihydroxyvitamin D3] | – | – | – | 0.03 | promotes intestinal calcium transport | very significant intestinal calcium transport activity | about the same or equal activity; also recorded: about the same as or equal to | 0.08 | about the same as or equal to | without any substantial additional effect | about the same or equal bone calcium mobilization activity | nearly the same affinity | 0.2
